Five molecules from patent US20220017861A1, “UREMIC VASCULOPATHY MODEL USING ENDOTHELIAL CELLS DERIVED FROM INDUCED PLURIPOTENT STEM CELLS AND UREMIC COMPLEX, AND USE THEREOF” (SAMSUNG LIFE PUBLIC WELFARE FOUNDATION, priority 2018, published 2022) can be followed below.

Each structure is given as a SMILES string. Counter-ions that a name gives are not always drawn.

Common to all, as to format: cell-based
Test [1] concerns endothelial cells derived from normal control induced pluripotent stem cells. Nature of the test: Drug effect verification by tube formation in uremic vasculopathy endothelial cell model. The settings on record: cells exposed to uremic toxin mixture or ESKD patient serum, then treated with drug, FIG. 11. As for the experimental part: (§1) In order to evaluate the functional abnormality of endothelial cells that may form vascular structures, the tube formation ability was measured. After seeding endothelial cells into a 24 or 12-well plate applied with Matrigel (Corning, catalog number CB-40234). After 16 to 24 hours of incubation, the level of tube formation was compared and analyzed.
In order to confirm whether the effect of the drug can be verified using the uremic vasculopathy endothelial cell model prepared by treating with the uremic toxin mixture of the present invention, the uremic toxin mixture of the present invention or ESKD patient's serum was applied to endothelial cells derived from normal control induced pluripotent stem cells. Then, SD-208 (TGF-β inhibitor) and losartan (angiotensin receptor blocker) were treated to measure the level of tube formation in order to examine respective effects. The endothelial cells' tube formation ability was measured and compared in the uremic toxin mixture of the present invention (UT-F, UT-H, uric acid 3 (UA 3)), serum of patients with chronic kidney disease (patient 2, patient 4), normal control serum (control 1) and cell culture medium alone (media only).

For test [2], the system named is endothelial cells differentiated from induced pluripotent stem cells. The test is described as follows: Apoptosis of endothelial cells (Caspase-Glo 3/7 assay). The settings on record: FIG. 7. On the procedure:
, apoptosis of endothelial cell was measured according to the manufactural instructions using the Caspase-Glo 3/7 assay systems kit (Promega, catalog number G8091), and the results are shown in FIG. 4.

For test [3] the test system is unchanged. The test is described as follows: Tube formation ability of endothelial cells on Matrigel. The settings on record: 16 to 24 hours of incubation on Matrigel, FIGS. 8 and 9. As for the experimental part: as §1
In order to confirm the reliability and effectiveness of the uremic vasculopathy endothelial cell model prepared by treating endothelial cells with the uremic toxin mixture of the present invention, the level of tube formation was measured to compare effects of the serum of ESKD patient undergoing hemodialysis and the uremic toxin mixture of the present invention by measuring the tube formation level.

In the case of `Fc1ccc(Cl)cc1-c1nc(Nc2ccncc2)c2nccnc2n1` [SD-208], the “inhibition of endothelial cell tube formation after drug treatment” value in test [1] is given as “alleviated”.
For `O=S(=O)(O)Oc1c[nH]c2ccccc12` [indoxyl sulfate, Indoxyl sulfate], the “apoptosis of endothelial cells” value in test [2] (single uremic toxin at 1 mM) was “not significantly promoted”.
On to `CCCCc1nc(Cl)c(CO)n1Cc1ccc(-c2ccccc2-c2nn[nH]n2)cc1` [losartan], for which the “inhibition of endothelial cell tube formation after drug treatment” value in test [1] was “alleviated”.
On to `NC(N)=O` [urea, Urea], for which, in test [2] (single uremic toxin at 50 mM), the “apoptosis of endothelial cells” value is recorded as “not significantly promoted”.
In the case of `O=c1[nH]c(=O)c2[nH]c(=O)[nH]c2[nH]1` [uric acid, Uric acid], the “tube formation ability of endothelial cells” value in test [3] is “well maintained”. For the same molecule, in test [2] (single uremic toxin at 1 mM), the “apoptosis of endothelial cells” value is “significantly promoted”.
